Here are results for five substances from PMC2635417 (The Journal of endocrinology, 2008).

Test [1] deals with CRH receptors (CRH-R1 and CRH-R2) in αT3-1 cells. It is filed as cell-based, murine. The note with it: 1 mM IBMX, p<0.05; for inhibition of CRH-mediated cAMP increase: 10 μM α-helical CRH 9–41 or 1 μM astressin with 100 nM CRH, 3 min; for inhibition of UCN1-mediated cAMP increase: 10 μM α-helical CRH 9–41 or 1 μM astressin with 100 nM UCN1, 3 min.
In a further test the test system is CRH-R2 in αT3-1 cells. Description: Antisauvagine. Type of test: cell-based, murine. The note with it: 1 μM antisauvagine, 15 min pretreatment; for effect of antisauvagine alone on cAMP: versus vehicle.
Test [2] concerns αT3-1 cells. Description: Total inositol phosphate levels. It is filed as cell-based, murine. The note with it: treatment alone; preliminary studies, unpublished data, A. Seasholtz.
Test [3] relates to αT3-1 cells. The note with it: cited from earlier work.
Test [4] deals with PACAP receptor in LβT2 gonadotrope like cell line. The note with it: LβT2 cells; ref Lariviere, et al. 2008; cited from earlier work.
For another test, the system named is α-subunit in αT3-1 cells. The note with it: ref Attardi and Winters 1998, Burrin, et al. 1998, Schomerus, et al. 1994, Tsujii, et al. 1995; cited from earlier work.

“Also recorded” adds a separate entry of the source. Where two headings read alike, the source gives them in different places. No end group written: not given here.

With “alpha-helical CRH (9–41) [α-helical CRH 9–41]”, in test [1], the “inhibition of CRH-mediated cAMP increase” value is on record as “reduced cAMP values to vehicle-treated levels” and the “inhibition of UCN1-mediated cAMP increase” value was “reduced cAMP values to vehicle-treated levels”. In test [1] (listed as α-helical CRH 9-41), the “inhibition of CRH-mediated cAMP increase” value was “completely blocked; also recorded: completely inhibited” and the “inhibition of UCN1-mediated cAMP increase” value was “completely blocked; also recorded: completely inhibited”.

Regarding antisauvagine, the “repression of UCN1-mediated cAMP increase” value with CRH-R2 in αT3-1 cells (then 100 nM UCN1 3 min, partial block) was 75%. The “inhibition of UCN3-mediated cAMP increase” value with CRH-R2 in αT3-1 cells (then 100 nM UCN3 3 min, p<0.05) is given as “completely blocked”. For the same substance, the entries for the “effect of antisauvagine alone on cAMP” value with CRH-R2 in αT3-1 cells and with CRH-R2 in αT3-1 cells (listed as AS) were “did not significantly differ from vehicle” and “no significant difference”, respectively.

For astressin, in test [1], the “inhibition of CRH-mediated cAMP increase” value was “completely blocked; also recorded: complete suppression; also recorded: completely inhibited; also recorded: significant repressions” and the “inhibition of UCN1-mediated cAMP increase” value was “completely blocked; also recorded: complete suppression; also recorded: completely inhibited; also recorded: significant repressions”.

In the case of “gonadotropin- releasing hormone (QHWSYGLRPG; Gonadoliberin-1; UniProt P01148 24-33, looked up) [GnRH]”, the “effect on total inositol phosphate levels” value in the test on αT3-1 cells [2] is on record as “dramatically increases total inositol phosphate levels”. Moreover, the “effect on cAMP levels” value with αT3-1 cells [3] (alone, ref McArdle and Counis 1996, McArdle, et al. 1994) is on record as “does not alter cAMP levels”. Moreover, in test [4], the “PACAP receptor phosphorylation by PKC” value is recorded as “stimulating PACAP receptor phosphorylation by PKC”.

For “pituitary adenylyl cyclase activating polypeptide (HSDGIFTDSYSRYRKQMAVKKYLAAVLGKRYKQRVKNK-NH2; ends and bridges not checked; UniProt P18509 132-169, looked up) [PACAP]”, the “α-subunit transcriptional activity / mRNA / expression” value in the test on α-subunit in αT3-1 cells is “increased transcriptional activity and steady state levels of α-subunit mRNA; also recorded: increased α-subunit expression”. The “effect on cAMP levels” value in the test with αT3-1 cells [3] (ref Attardi and Winters 1998, Burrin, et al. 1998, Schomerus, et al. 1994, Tsujii, et al. 1995) is given as “increase intracellular cAMP levels”.
